Measured values published in ChEMBL document CHEMBL4118189, “Discovery of novel N-hydroxy-2-arylisoindoline-4-carboxamides as potent and selective inhibitors of HDAC11” (Bioorg Med Chem Lett, 2018).

How the values were obtained:
Histone deacetylase 2 = Histone deacetylase 2 (Homo sapiens, UniProt Q92769); assay: Inhibition of full length recombinant human HDAC2 using fluorescent-labeled peptide as substrate by electrophoretic mobility shift assay
Histone deacetylase 5 = Histone deacetylase 5 (Homo sapiens, UniProt Q9UQL6); assay: Inhibition of full length recombinant human HDAC5 using fluorescent-labeled peptide as substrate by electrophoretic mobility shift assay
Chain of Histone deacetylase 5 (Q9UQL6 whole entry): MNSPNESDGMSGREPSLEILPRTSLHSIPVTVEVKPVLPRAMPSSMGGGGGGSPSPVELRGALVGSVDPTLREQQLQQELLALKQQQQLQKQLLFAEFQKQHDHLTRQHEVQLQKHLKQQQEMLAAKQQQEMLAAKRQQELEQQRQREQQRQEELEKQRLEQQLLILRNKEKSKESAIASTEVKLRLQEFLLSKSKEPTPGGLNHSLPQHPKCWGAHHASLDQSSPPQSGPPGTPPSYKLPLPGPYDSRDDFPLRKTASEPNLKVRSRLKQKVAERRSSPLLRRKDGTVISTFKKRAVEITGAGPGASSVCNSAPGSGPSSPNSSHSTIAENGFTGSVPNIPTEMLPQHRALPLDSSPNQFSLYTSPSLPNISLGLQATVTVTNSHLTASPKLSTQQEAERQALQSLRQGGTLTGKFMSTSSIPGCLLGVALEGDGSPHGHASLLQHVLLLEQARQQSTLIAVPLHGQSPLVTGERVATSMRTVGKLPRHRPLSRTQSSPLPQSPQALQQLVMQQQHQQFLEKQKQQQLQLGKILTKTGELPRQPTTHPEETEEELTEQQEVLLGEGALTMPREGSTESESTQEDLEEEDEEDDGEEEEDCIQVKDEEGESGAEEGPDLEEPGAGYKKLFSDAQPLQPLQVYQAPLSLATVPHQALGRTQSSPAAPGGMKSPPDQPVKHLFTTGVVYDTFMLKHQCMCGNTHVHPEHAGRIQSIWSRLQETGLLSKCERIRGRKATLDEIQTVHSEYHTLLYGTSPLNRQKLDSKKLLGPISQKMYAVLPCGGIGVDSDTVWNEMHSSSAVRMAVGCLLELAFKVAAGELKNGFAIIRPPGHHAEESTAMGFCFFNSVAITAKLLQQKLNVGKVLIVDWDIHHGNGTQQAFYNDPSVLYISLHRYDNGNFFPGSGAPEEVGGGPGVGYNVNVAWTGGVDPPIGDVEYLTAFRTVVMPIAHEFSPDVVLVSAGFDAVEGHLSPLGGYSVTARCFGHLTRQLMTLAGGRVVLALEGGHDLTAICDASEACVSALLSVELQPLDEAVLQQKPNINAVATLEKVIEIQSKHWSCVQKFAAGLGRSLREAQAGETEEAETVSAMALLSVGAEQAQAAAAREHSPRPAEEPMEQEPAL

Histone deacetylase 7 = target: T1, Histone deacetylase 7 (Homo sapiens, UniProt Q8WUI4); assay: Inhibition of full length recombinant human HDAC7 using fluorescent-labeled peptide as substrate by electrophoretic mobility shift assay
T1 sequence (Q8WUI4 whole entry): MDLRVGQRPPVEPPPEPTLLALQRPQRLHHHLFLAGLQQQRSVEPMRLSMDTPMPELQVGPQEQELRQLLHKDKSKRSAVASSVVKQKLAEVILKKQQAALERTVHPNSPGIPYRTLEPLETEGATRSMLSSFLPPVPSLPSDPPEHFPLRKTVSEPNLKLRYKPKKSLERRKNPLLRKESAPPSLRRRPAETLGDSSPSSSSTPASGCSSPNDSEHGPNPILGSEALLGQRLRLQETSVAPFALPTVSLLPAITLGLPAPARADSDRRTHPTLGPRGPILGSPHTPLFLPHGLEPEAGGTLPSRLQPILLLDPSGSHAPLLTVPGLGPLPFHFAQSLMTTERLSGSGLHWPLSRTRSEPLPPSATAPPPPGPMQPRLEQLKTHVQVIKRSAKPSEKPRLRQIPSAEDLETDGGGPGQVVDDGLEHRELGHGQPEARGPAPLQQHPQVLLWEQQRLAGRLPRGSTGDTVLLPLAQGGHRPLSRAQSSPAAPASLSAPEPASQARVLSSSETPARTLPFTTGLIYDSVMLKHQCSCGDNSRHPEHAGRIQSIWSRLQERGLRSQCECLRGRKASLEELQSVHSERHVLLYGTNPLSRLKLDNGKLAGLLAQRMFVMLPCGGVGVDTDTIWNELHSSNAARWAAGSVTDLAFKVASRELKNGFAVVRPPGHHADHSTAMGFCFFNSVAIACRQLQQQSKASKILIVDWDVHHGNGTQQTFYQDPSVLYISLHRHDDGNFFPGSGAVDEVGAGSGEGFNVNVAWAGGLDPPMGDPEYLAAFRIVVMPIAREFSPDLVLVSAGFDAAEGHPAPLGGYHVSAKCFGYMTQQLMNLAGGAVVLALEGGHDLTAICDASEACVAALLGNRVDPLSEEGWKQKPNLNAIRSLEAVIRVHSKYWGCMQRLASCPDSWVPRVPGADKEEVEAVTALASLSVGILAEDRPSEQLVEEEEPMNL

Histone deacetylase 9 = Histone deacetylase 9 (Homo sapiens, UniProt Q9UKV0); assay: Inhibition of full length recombinant human HDAC9 using fluorescent-labeled peptide as substrate by electrophoretic mobility shift assay
Chain of Histone deacetylase 9 (Q9UKV0 whole entry): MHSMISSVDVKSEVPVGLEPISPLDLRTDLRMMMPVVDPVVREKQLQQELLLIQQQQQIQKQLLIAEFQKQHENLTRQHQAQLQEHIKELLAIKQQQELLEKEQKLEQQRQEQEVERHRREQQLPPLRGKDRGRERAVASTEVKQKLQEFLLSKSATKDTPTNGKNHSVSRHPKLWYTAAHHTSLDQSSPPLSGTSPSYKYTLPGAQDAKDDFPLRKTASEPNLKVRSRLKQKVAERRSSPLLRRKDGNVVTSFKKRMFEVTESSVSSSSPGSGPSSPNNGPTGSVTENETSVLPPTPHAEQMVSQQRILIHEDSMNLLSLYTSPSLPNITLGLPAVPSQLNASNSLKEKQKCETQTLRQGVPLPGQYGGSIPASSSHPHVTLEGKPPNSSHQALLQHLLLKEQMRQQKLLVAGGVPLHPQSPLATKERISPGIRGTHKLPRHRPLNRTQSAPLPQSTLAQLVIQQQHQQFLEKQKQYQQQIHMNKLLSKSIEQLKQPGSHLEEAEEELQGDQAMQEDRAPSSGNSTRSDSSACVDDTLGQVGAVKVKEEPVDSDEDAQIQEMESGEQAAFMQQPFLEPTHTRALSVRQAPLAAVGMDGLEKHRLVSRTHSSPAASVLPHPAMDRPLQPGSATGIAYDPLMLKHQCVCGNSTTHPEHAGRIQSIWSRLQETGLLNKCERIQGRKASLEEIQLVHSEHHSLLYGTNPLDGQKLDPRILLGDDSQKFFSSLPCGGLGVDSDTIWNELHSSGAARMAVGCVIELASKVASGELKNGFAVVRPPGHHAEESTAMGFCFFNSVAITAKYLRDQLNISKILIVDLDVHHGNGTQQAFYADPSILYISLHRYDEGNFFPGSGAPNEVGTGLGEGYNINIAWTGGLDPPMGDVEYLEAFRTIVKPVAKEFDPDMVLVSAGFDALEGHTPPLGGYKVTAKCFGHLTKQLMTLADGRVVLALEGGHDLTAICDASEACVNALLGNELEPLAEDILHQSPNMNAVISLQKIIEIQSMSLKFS

[1] = target: T2, Polyamine deacetylase HDAC10 (Homo sapiens, UniProt Q969S8); assay: Inhibition of full length recombinant human HDAC10 using fluorescent-labeled peptide as substrate by electrophoretic mobility shift assay
T2 sequence (Q969S8 whole entry): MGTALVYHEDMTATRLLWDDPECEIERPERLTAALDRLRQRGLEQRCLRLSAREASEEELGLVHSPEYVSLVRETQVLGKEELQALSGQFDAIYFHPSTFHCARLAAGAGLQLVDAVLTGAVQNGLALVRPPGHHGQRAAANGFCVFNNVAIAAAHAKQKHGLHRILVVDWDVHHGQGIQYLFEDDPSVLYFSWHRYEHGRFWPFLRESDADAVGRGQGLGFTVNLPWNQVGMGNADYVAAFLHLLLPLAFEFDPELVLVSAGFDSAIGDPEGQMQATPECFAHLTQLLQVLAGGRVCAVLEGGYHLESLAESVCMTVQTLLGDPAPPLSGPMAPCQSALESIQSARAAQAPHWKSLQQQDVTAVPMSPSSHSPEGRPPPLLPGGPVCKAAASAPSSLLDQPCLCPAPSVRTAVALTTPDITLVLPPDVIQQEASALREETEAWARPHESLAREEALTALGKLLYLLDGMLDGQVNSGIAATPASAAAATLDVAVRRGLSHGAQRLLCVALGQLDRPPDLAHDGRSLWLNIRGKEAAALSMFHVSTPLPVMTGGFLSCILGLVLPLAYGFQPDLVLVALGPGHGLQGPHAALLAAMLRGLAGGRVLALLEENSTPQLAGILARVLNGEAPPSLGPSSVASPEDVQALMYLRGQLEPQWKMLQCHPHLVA

[2] = Intrinsic clearance in mouse liver microsomes; assay type: ADME, microsome; details: read-out: CLH
Histone deacetylase 3 = Histone deacetylase 3 (Homo sapiens, UniProt O15379); assay: Inhibition of full length recombinant human HDAC3 using fluorescent-labeled peptide as substrate by electrophoretic mobility shift assay
Chain of Histone deacetylase 3 (O15379 whole entry): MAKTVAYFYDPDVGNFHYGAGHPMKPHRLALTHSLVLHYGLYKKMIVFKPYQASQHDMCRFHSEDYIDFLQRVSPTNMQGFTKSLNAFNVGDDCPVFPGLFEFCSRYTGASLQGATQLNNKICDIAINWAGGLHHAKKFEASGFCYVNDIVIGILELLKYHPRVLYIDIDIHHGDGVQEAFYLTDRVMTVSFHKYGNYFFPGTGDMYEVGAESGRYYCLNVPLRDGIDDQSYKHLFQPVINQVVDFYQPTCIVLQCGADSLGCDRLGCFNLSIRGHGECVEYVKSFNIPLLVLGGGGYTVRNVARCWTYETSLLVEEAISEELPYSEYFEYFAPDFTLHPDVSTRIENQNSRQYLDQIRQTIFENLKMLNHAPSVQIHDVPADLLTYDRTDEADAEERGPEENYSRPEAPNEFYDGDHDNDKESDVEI

Chain of Histone deacetylase 2 (Q92769 whole entry): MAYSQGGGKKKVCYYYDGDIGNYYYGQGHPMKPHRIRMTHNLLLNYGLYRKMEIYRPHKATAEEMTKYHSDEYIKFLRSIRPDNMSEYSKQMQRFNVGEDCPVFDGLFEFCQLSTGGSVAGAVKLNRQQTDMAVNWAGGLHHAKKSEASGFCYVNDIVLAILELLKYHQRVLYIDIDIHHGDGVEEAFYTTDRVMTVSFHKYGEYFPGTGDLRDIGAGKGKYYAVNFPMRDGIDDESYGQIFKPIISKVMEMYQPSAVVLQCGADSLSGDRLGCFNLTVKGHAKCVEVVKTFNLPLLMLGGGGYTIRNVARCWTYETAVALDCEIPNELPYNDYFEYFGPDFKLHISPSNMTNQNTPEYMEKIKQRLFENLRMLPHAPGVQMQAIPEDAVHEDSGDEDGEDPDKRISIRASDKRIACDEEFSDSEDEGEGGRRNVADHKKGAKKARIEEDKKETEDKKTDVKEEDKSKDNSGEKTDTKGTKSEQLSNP

CC1(C)c2cccc(C(N)=O)c2CN1c1cnc(C(F)(F)F)cn1
7 µL/min/mg: microsomal CLint [2]
> 10 µM: IC50 (Histone deacetylase 2) | IC50 (Histone deacetylase 5) | IC50 (Histone deacetylase 7) | IC50 (Histone deacetylase 9) | IC50 [1] | IC50 (Histone deacetylase 3)
